# In patent US6900200B2, “Tricyclic hydroxy carboxamides and derivatives thereof tocolytic oxytocin receptor antagonists” (Wyeth, priority 2001, dated 2005):
# Target: T1, human oxytocin receptor (Homo sapiens, UniProt P30559)
# T1 construct: host or cells: CHO cells, pcDNA3.1 vector
# T1 sequence (P30559 1-389): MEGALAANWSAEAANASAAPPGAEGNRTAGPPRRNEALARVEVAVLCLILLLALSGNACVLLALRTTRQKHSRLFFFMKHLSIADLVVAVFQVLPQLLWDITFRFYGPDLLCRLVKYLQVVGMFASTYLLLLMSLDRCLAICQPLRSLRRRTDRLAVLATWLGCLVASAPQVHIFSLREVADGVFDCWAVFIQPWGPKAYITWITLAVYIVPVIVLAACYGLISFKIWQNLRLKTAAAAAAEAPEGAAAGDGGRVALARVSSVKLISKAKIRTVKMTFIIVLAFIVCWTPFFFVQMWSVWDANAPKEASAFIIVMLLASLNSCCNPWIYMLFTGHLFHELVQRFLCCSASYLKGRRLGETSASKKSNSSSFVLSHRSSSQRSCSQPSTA
# Experiment: Oxytocin binding in CHO cell membranes expressing human oxytocin receptors ([3H]oxytocin radioligand binding)
# Conditions: @ 100 nM, read-out: OT % inhibition @ 100 nM
# From the text: Oxytocin Binding in Chinese Hamster Ovary Cell Membranes Expressing Human Oxytocin Receptors
# Chinese Hamster Ovary (CHO) cells stably transfected with the human oxytocin receptor (cf. Tanizawa et al., U.S. Pat. No. 5,466,584 (1995) to Rohto Pharmaceutical Co. Ltd., Osaka, Japan) were obtained from M. Thibonnier, Case Western Reserve University School of Medicine, Cleveland, Ohio.
# A. Passaging and Amplification of Cells
# CHO cells transfected with the human oxytocin receptors obtained from M. Thibonnier (pcDNA3.1 vector) are allowed to grow to confluency (approx. >90%) in T-150 flasks under sterile conditions, in a cell culture medium of F-12 Nutrient Mixture (HAM) with L-glutamine (Gibco Cat. #11765-054) containing 15 mM HEPES (Gibco Cat. #15630-080), 1% antibiotic/antimycotic (add 5 mL 100×, Gibco Cat. #15240-062 per 500 mL F-12), 400 μg/mL of Geneticin (add 4 mL of 50 mg/mL per 500 mL F-12) and 10% Fetal Bovine Serum (Qualified, heat inactivated, Gibco Cat. #16140-063). The medium is removed by aspiration and the cells are washed with 10 mL of Hank's Balanced Salt solution (Gibco Cat. #14175-095). The salt solution is removed by aspiration and the cells trypsinized with 5 mL of trypsin-EDTA (0.05% trypsin, 0.53 mM EDTA-4Na, Gibco Cat. #25300-070) for 1 min. The trypsin is removed by aspiration and the cells dislodged by tapping. Cell Culture medium (e.g. 30 mL for 1:30 split) is immediately added and mixed well to inactivate trypsin. 1 mL of detached cells is added to new culture flasks containing fresh Cell Culture medium (e.g. into 25 mL per T-150 flask), and mixed gently. The cells are incubated at 37° C. in 5% CO2. The medium is changed at 3 to 4 days interval (or as appropriate). The cells grow to confluency (approx. >75%-95%) within 7-8 days. All steps are done under sterile conditions.
# The cells are washed twice gently with Hank's Balanced Salt solution (e.g., use 10 mL per T-1 50 flask). The excess solution is removed and the cells bathed for 15-30 min. in an enzyme-free Cell Dissociation Buffer (e.g., use 8 mL Hank's Based, Gibco Cat. #13150-016 per T-150 flask) until cells are loosened. The contents are transferred to centrifuge tubes (50 mL size) kept in ice bath. All subsequent steps are done at 4° C. The tubes are centrifuged at 300×g for 15 min (1380 rpm on SORVAL, Model RT6000D, using rotor for 50 mL tubes). The supernatant is discarded and the cells suspended in homogenizing buffer (10 mM Tris-HCl containing 0.25 M sucrose and 1 mM EDTA, pH 7.4) ensuring that the volume of the buffer is about ten times the volume of the cell pellet. The cells are pooled into a centrifuge tube (50 mL) and homogenized with a Polytron at setting 6 for 10 sec. The homogenate is transferred into a Potter-Elvjehm homogenizer and homogenized with 3 strokes. The homogenate is centrifuged at 1500×g for 10 min at 4° C. (3100 rpm using SORVAL, model RT6000D, using rotor for 50 mL tubes). The pellet is discarded. The supernatant is centrifuged at 100,000×g for 60 min. at 4° C. (Beckman L8-80M ultracentrifuge; spin at 37,500 rpm with rotor type 70 Ti for 50 mL tubes; 38,000 rpm with type 80Ti for 15 mL tubes; or 35,800 rpm with rotor type 45Ti). The supernantant is discarded and the pellet suspended in 3 to 4 mL of Tris buffer (50 mM TRIS—HCl, pH 7.4). The protein content is estimated by the Bradford or Lowry method. The volume of the membrane suspension is adjusted with the membrane buffer (50 mM Tris-HCl containing 0.1% BSA and 0.1 mM PMSF) to give 3.0 mg/mL (or as appropriate) of protein. The membranes are aliquoted and stored at −70° C.
# C. Radioligand Binding Assay
# In wells of a 96-well format microtiter plate, is added 90, 110 or 130 μL (to make up a final volume of 200 μL) of assay buffer containing 50 mM of Tris-HCl (pH 7.4), […], 1 mg % aprotinin, 1 mg % leupeptin, 2 mg % 1,10-phenanthroline, 10 mg % trypsin inhibitor, and 0.1 mM PMSF. […]
row,Compound,inhibition at 0.1 µM [%]
1,"COc1cccc(-c2cc(OC)c(C(=O)N3Cc4ccc(C(=O)N5CCN(CCO)CC5)n4Cc4ccccc43)cc2Cl)c1 [Example 49, {10-[(6-Chloro-3,3′-dimethoxy[1,1′-biphenyl]-4-yl)carbonyl]-10,11-dihydro-5H-pyrrolo[2,1-c][1,4]benzodiazepin-3-yl}[4-(2-hydroxyethyl)-1-piperazinyl]methanone]",81
2,"COc1cccc(-c2ccc(C(=O)N3Cc4ccc(C(=O)N5CCN(CCO)CC5)n4Cc4ccccc43)cc2OC)c1 [Example 50, {10-[(2,3′-Dimethoxy[1,1′-biphenyl]-4-yl)carbonyl]-10,11-dihydro-5H-pyrrolo[2,1-c][1,4]benzodiazepin-3-yl}[4-(2-hydroxyethyl)-1-piperazinyl]methanone]",83
3,"COc1cc(C(=O)N2Cc3ccc(C(=O)N4CCN(CCO)CC4)n3Cc3ccccc32)ccc1-n1c(C)ccc1C [Example 52, {10-[4-(2,5-Dimethyl-1H-pyrrol-1-yl)-3-methoxybenzoyl]-10,11-dihydro-5H-pyrrolo[2,1-c][1,4]benzodiazepin-3-yl}[4-(2-hydroxyethyl)-1-piperazinyl]methanone]",36

# The remaining lines, values ahead:
row,inhibition at 0.1 µM [%],Compound
1,75,"COc1ccccc1-c1ccc(C(=O)N2Cc3ccc(C(=O)N4CCN(CCO)CC4)n3Cc3ccccc32)cc1OC [Example 43, {10-[(2,2′-Dimethoxy[1,1′-biphenyl]-4-yl)carbonyl]-10,11-dihydro-5H-pyrrolo[2,1-c][1,4]benzodiazepin-3-yl}[4-(2-hydroxyethyl)-1-piperazinyl]methanone]"
2,83,"COc1cccc(-c2ccc(C(=O)N3Cc4ccc(C(=O)N5CCN(CCO)CC5)n4Cc4ccccc43)cc2C)c1 [Example 44, [4-(2-Hydroxyethyl)-1-piperazinyl]{10-[(3′-methoxy-2-methyl[1,1′-biphenyl]-4yl)carbonyl]-10,11-dihydro-5H-pyrrolo[2,1-c][1,4]benzodiazepin-3-yl}methanone]"
3,87,"Cc1ccccc1-c1ccc(C(=O)N2Cc3ccc(C(=O)N4CCN(CCO)CC4)n3Cc3ccccc32)cc1 [Example 45, [4-(2-Hydroxyethyl)-1-piperazinyl]{10-[(2′-methyl[1,1′-biphenyl]-4-yl)carbonyl]-10,11-dihydro-5H-pyrrolo[2,1-c][1,4]benzodiazepin-3-yl}methanone]"
4,97,"Cc1ccccc1-c1ccc(C(=O)N2Cc3ccc(C(=O)N4CCN(CCO)CC4)n3Cc3ccccc32)cc1C [Example 46, {10-[(2,2′-Dimethyl[1,1′-biphenyl]-4-yl)carbonyl]-10,11-dihydro-5H-pyrrolo[2,1-c][1,4]benzodiazepin-3-yl}[4-(2-hydroxyethyl)-1-piperazinyl]methanone]"
5,55,"COc1ccccc1-c1ccc(C(=O)N2Cc3ccc(C(=O)N4CCN(CCO)CC4)n3Cc3ccccc32)cc1 [Example 47, [4-(2-Hydroxyethyl)-1-piperazinyl]{10-[(2′-methoxy[1,1′-biphenyl]-4-yl)carbonyl]-10,11-dihydro-5H-pyrrolo[2,1-c][1,4]benzodiazepin-3-yl}methanone]"
6,79,"Cc1cc(C(=O)N2Cc3ccc(C(=O)N4CCN(CCO)CC4)n3Cc3ccccc32)ccc1-c1ccccc1C(F)(F)F [Example 48, [4-(2-Hydroxyethyl)-1-piperazinyl](10-{[2-methyl-2′-(trifluoromethyl)[1,1′-biphenyl]-4-yl)carbonyl}-10,11-dihydro-5H-pyrrolo[2,1-c][1,4]benzodiazepin-3-yl)methanone]"

# Same assay, conditions: value printed in parentheses, read-out: OT (IC50)
row,Compound,IC50 [nM]
1,"{(2S)-1-[(10-{[2-Methoxy-2(trifluoromethyl)[1,1′-biphenyl]-4-yl]carbonyl}-10,11-dihydro-5H-pyrrolo[2,1-c][1,4]benzodiazepin-3-yl)carbonyl]pyrrolidin-2-yl}-methanol [Example 36]",7.95
